{
  "source": "PubChem BioAssay AID588784",
  "about": "(Southern Research Specialized Biocontainment Screening …, 2011)",
  "system": "HSV-infected cells, viral DNA qPCR Ct reduction",
  "experiment": "enhancers of HSV replication by viral DNA qPCR, confirmation, HSV replication enhancer project, cell-based (AID 588784)",
  "settings": "at 10 µM; hits give high values",
  "note": "Several values for one entry are separate records, joined by “and”; a condition that tells them apart may be missing. Identical values can stand only once. Activity calls are given as the source filed them. The rule behind the calls is not given here.",
  "data": [
    {"smiles": "COc1cc(C(=O)OCCCN2CCCN(CCCOC(=O)c3cc(OC)c(OC)c(OC)c3)CC2)cc(OC)c1OC", "values": [
      {"measurement": "Ct reduction", "result": "-0.309 (inactive) and -0.64 (inactive)"}
    ]}
  ]
}
